Literature values in US20120087953A1, “PHARMACEUTICAL COMPOSITIONS OF ACTIVE PHARMACEUTICAL INGREDIENT COMPRISING SULPHONYLUREA MOIETY WITH EXCELLENT DISSOLUTION PROPERTIES” (LEK PHARMACEUTICALS D.D., priority 2009, published 2012).

Conditions: acidic medium, 37° C.

For `CCC1=C(C)CN(C(=O)NCCc2ccc(S(=O)(=O)NC(=O)N[C@H]3CC[C@H](C)CC3)cc2)C1=O` [glimepiride], the solubility is given as “less than 0.001 mg/mL”.
